Experimental findings from patent US20030208035A1, “Antifungal and/or antibacterial peptides, preparation methods, compositions containing same and methods of treating mammals and/or plants” (priority 2000, published 2003) are described below.

Bridges are numbered along the chain shown (N, C = ends). Where no end group is shown, it is not given here. Where only a bound is given, the exact number is not on record here.

One data set has as its system C. dubliensis. The format is cell-based. As to the method: (§1) Candida yeasts (C. albicans, C. glabrata, C. dubliensis, C. tropicalis, C. kefyr, C. krusei and C. parapsilosis—donated by Dr. H. Koenig, Hôpital Civil, Strasbourg), fluconazole-resistant C. albicans (n^o245962, n^o2332, n^o246335 and n^o3552, donated by Drs. J.Meis and J. Mouton, University Hospital, Microbiology Department, Nijmegen, Netherlands), and Cryptoccocus neoformans (donated by Dr. H. Koenig, Hôpital Civil, Strasbourg) were seeded on Sabouraud-Cloramphenicol Agar slant gelose (Biomerieux) and left to incubate for 24 h at 30° C. (Candida sp.) and for 72 h at 37° C. (Cryptoccocus neoformans).
(§2) Some yeast colonies were placed in suspension in liquid Sabouraud medium (Biomerieux) to obtain a final concentration of 0.1 OD at 600 nm corresponding to 2.5.10^6 yeasts/ml.
(§3) The yeast suspension was adjusted to 5.10^3 yeast/ml in Sabouraud medium.
(§4) 100 μl of peptide dilutions (concentration of 50 with 0.097 μg/ml peptide) were deposited in microtitration plates. After adding […] of yeast suspension with 5.10^3 yeast/ml i.e. 500 yeasts, the test plates were incubated 24 h at 30° C. (Candida) under slow shaking or 72 h at 37° C. (Cryptoccocus).
(§5) Determination of minimal inhibiting concentrations (MIC) was made by measuring absorbency at 600 nm using a spectrophotometer-microtitration plate reader. The MIC score was set at a growth inhibition rate of 50%.

The next data set concerns C. parapsilosis. The format is cell-based. On the procedure: as §1, §2, §3, §4, §5
Another data set concerns C. glabrata. Type of data set: cell-based. On the procedure: as §1, §2, §3, §4, §5
Another data set deals with Alternaria brassicola. The format is cell-based. The conditions noted are these: 48 h. As to the method: (§6) 100 μl of peptide dilutions (concentration 50 with 0.097 mg/ml peptide) were deposited in microtitration plates.
(§7) After adding 100 μl of frozen spores with 10^4 spores/ml of A. brassicola and N. crassa (donated by Dr. Bullet, IBMC, Strasbourg) the test plates were incubated 48 h at 30° C.
(§8) Determination of minimal inhibiting concentrations (MIC) was made by observing well cover rate. The MIC was set at 50% well covering.

For a further data set, the system named is Neurospora crassa. The format is cell-based. As to conditions: 48 h. On the procedure: as §6, §7, §8
In a further data set the test system is Aspergillus fumigatus. In words: anti-Aspergillus fumigatus growth inhibition test in liquid medium (96-well microplates). Type of data set: cell-based. As to conditions: fold relative to Ard1. As to the method:
The anti-Candida albicans and anti-Aspergillus fumigatus activities of the different analogues were assessed using a growth inhibition test in liquid medium made in 96-well microplates. The activity of the purified peptides was tested for different dilutions of each peptide and was compared with those of heliomycin and Ard1 quantified under the same conditions.
The spores of Aspergillus fumigatus were derived from a stock frozen at −80° C., containing 10^7 spores/ml in a 25% glycerol solution. After slow thawing at room temperature, the spores were placed in suspension in PDB culture medium (12 g Potato Dextrose Broth medium, per […] water). 10 μl of each sample were deposited in the wells of microtitration plates in the presence of 90 μl PDB culture medium supplemented with tetracycline (100 μg/ml) and cefotaxime (1 μg/ml) containing the spores (at a final concentration of 1000 spores/well). Control cultures were systematically made in which 10 μl of sample were replaced by 10 μl of sterile water. Media sterility was controlled by incubating 10 μl sterile water in the presence of 90 μl of medium. The samples were incubated at 37° C. for 24 h to 48 h in a humid atmosphere, and the antifungal activity was quantified by a score of 0 to 9 taking germination account; the size and morphology of the hyphs were determined under the binocular microscope. […].

The next data set concerns A. fumigatus. The format is cell-based. The conditions noted are these: 48 h. On the procedure:
The antifungal activity was detected by a growth inhibition test in a liquid medium.
The filamentous fungi (A. fumigatus, A. flavus and A. terreus, donated by Dr. H. Koenig, Hôpital Civil, Strasbourg; and S. prolificans and F. solani donated by Drs. J. Meis and J. Mouton, University hospital, Microbioolgy Department, Nijmegen, Netherlands) were seeded on Malt-Agar slant gelose (Biomerieux) and incubated 7 days at 37° C.
The spores were then collected with 10 ml YPG medium containing 0.05% Tween 20 and filtered through a gauze. The spores were centrifuged 10 min at 1700 rpm, the residue was collected in YPG (1 g Yeast extract, 1 g Peptone, 3 g Glucose per 1 l).
The suspension was counted with a Coverslide and adjusted to 10^4 spores/ml.
100 μl of peptide dilutions (concentration of 50 with 0.097 μg/ml peptide) were deposited in microtitration plates. 100 μl with 10^4 spores/ml of filamentous fungi, i.e. 1000 spores, were then added.
The test plates were incubated 48 h at 37° C.
Determination of minimum inhibiting concentrations (MIC) was made by observing well cover rate. The MIC score was set at 50% well covering.

Data set [1] is described as follows: Acute toxicity study in mice. Type of data set: in vivo. As to conditions: for acute toxicity: mice, intravenous, in 0.9% NaCl, injections of 30 mg/kg repeated at 30-minute intervals, 3 times daily for 3 days. On the procedure: […] The peptides were solubilised in a 0.9% NaCl solution; the injected volume was 150 μl injected in 45 seconds via the lateral tail vein.

Turning to “DKLIGSCVWGAVNYTSNCNAECKRRGYKGGHCGSFANVNCWCQT (disulfide 7-32, 18-40, 22-42 (inferred)) [pEM31]”, the MIC is 6.25 µg/mL in the data set with C. dubliensis; 1.56 µg/mL with C. parapsilosis; above 25 µg/mL in the data set on C. glabrata; above 25 µg/mL in the data set with Alternaria brassicola; below 0.048 µg/mL in the data set with Neurospora crassa. For the same sequence, in the data set with Aspergillus fumigatus, the “Activity A.f. (relative activity in relation to Ard1)” value is 4-8.

With “DKLIGSCVWGAVNYTSNCNAECKRRGYKGGHCGSFLNVNCWCET (disulfide 7-32, 18-40, 22-42 (inferred)) [pEM35]”, the MIC was above 25 µg/mL in the data set on C. glabrata, 6.25 µg/mL with A. fumigatus, above 25 µg/mL with Alternaria brassicola and below 0.048 µg/mL against Neurospora crassa. Further, the acute toxicity result in data set [1] is “no acute toxicity was observed”. The “delayed growth (weight) on the day after the injection” value in data set [1] (single i.v. dose 200 mg/kg) and in data set [1] (single i.v. dose 400 mg/kg) was “approximately 1 g” in each case. Also, in the data set on Aspergillus fumigatus, the “Activity A.f. (relative activity in relation to Ard1)” value was 2-4.

As for “DKLIGSCVWGAVNYTSNCNAECKRRGYKGGHCGSFLNVNCWCQT (disulfide 7-32, 18-40, 22-42 (inferred)) [pEM46]”, the MIC against C. dubliensis was 3.125 µg/mL; in the data set on C. parapsilosis it was 0.78 µg/mL; with C. glabrata, above 25 µg/mL; in the data set on A. fumigatus it was 3.125 µg/mL; against Alternaria brassicola, 25 µg/mL; with Neurospora crassa, 0.195 µg/mL. Besides, the “Activity A.f. (relative activity in relation to Ard1)” value with Aspergillus fumigatus is 6-8.

For the sequence “DKLIGSCVWGAVNYTSNCRAECKRRGYKGGHCGSFANVNCWCET (disulfide 7-32, 18-40, 22-42 (inferred)) [pEM51]”, the MIC was above 25 µg/mL against C. glabrata, above 25 µg/mL in the data set with Alternaria brassicola and 0.195 µg/mL in the data set with Neurospora crassa. In addition, in data set [1], the acute toxicity entry is “no acute toxicity was observed”. The “delayed growth (weight) on the day after the injection” value was “approximately 1 g” in data set [1] (single i.v. dose 200 mg/kg), “approximately 1 g” in data set [1] (single i.v. dose 300 mg/kg) and “approximately 2 g” in data set [1] (single i.v. dose 400 mg/kg). Further, the “Activity A.f. (relative activity in relation to Ard1)” value with Aspergillus fumigatus was 1.

As a reminder, the MIC is the lowest concentration that inhibits growth of the organism.
